Measurements published in article PMC3388080 (PLoS ONE, 2012).

System: male Sprague-Dawley rats
Experiment: EEG/EMG/Tcore/LMA telemetry sleep study 2 (EMPA vs ZOL)
Type: in vivo, rat
Conditions: for REM:NR ratio: 6 h after dosing
Procedure: All rodent electroencephalograph (EEG) studies were performed at SRI International. Three groups of eight male Sprague-Dawley rats (300±25 g; Charles River, Wilmington, MA) were implanted with chronic recording devices (F40-EET, Data Sciences Inc., St Paul, MN) for continuous recordings of EEG, electromyograph (EMG), core body temperature (Tcore), and LMA via telemetry as previously described. Data recording and scoring were performed as previously reported (see also Supplemental Material and Methods). The EEG and EMG data were scored in 10 sec epochs for waking (W), rapid eye movement sleep (REM), and non-REM sleep (NR). Tcore and LMA (counts per minute) were analyzed as hourly means. Data from the EEG studies are reported in hourly means such that the hourly time ZT1 refers to the hour between time points ZT0 and ZT1.
For each of the three separate studies, a repeated measures counter-balanced design was employed in which each rat received five separate dosings. […] All dosings were administered ip in a volume of 2 ml/kg. A minimum of 3 d elapsed between doses. Dosing occurred during the middle of the rats’ normal active period at the start of ZT19 and was typically completed within 10 min. Animals were continuously recorded for 6 h prior to dosing and for 18 h following dosing.

## CCN(Cc1cccnc1)C(=O)CN(c1ccc(OC)nc1)S(=O)(=O)c1ccccc1C [EMPA, N-(Ethyl-2-[(6-methoxy-pyridin-3-yl)-(toluene-2-sulfonyl)-amino]-N-pyridin-3-ylmethyl-acetamide)]
100 mg/kg ip, across 6 h, vs vehicle
  LMA (in words): LMA was decreased
100 mg/kg ip, first 4 and 6 h periods
  cumulative NR (in words): increased cumulative NR
6 h Average, 30 mg/kg ip
  NR bout duration: 1.43 ±0.14
  REM bout duration: 0.88 ± 0.09
  W bout duration: 5.35 ±0.77
6 h Average, 100 mg/kg ip
  NR bout duration: 1.28 ± 0.12^+
  REM bout duration: 0.96 ± 0.09
  W bout duration: 3.54 ± 0.20
6 h Average, EMPA 10 mg/kg ip
  NR bout duration: 1.34 ± 0.17
  REM bout duration: 0.79 ± 0.09
  W bout duration: 5.56 ± 0.52
6 h Total, 30 mg/kg ip
  Number of NR bouts: 68.80 ± 7.18
  Number of REM bouts: 22.10 ± 3.30^+
  Number of W bouts: 51.30 ± 4.95
6 h Total, 100 mg/kg ip
  Number of NR bouts: 84.80 ± 5.06
  Number of REM bouts: 20.00 ± 1.93^+
  Number of W bouts: 65.10 ± 3.37
6 h Total, EMPA 10 mg/kg ip
  Number of NR bouts: 68.80 ±6.22
  Number of REM bouts: 18.10 ± 2.28^+
  Number of W bouts: 50.20 ±5.70
10 mg/kg ip (EMPA)
  REM:NR ratio: 0.16±0.019^+
30 mg/kg ip
  REM:NR ratio: 0.21±0.032^+
100 mg/kg ip
  REM:NR ratio: 0.18±0.027^+
ZT19, 30 mg/kg ip
  NR bout duration: 1.27± 0.15^+
  Number of NR bouts: 9.90 ± 1.60
  Number of REM bouts: 1.20± 0.49
  Number of W bouts: 6.20± 0.98
  REM bout duration: 0.62± 0.22
  W bout duration: 11.89± 5.40
ZT19, 100 mg/kg ip
  NR bout duration: 1.11± 0.19^+
  Number of NR bouts: 10.80± 2.39
  Number of REM bouts: 0.90± 0.46
  Number of W bouts: 9.80± 2.48
  REM bout duration: 0.86± 0.19
  W bout duration: 13.14± 5.99
ZT19, EMPA 10 mg/kg ip
  NR bout duration: 1.60± 0.25^+
  Number of NR bouts: 7.40 ± 2.00
  Number of REM bouts: 1.60± 0.67
  Number of W bouts: 4.60± 1.25
  REM bout duration: 0.64± 0.15
  W bout duration: 16.42± 5.00
ZT20, 30 mg/kg ip
  NR bout duration: 1.50± 0.28^+
  Number of NR bouts: 12.50± 2.18
  Number of REM bouts: 4.40± 0.96^+
  Number of W bouts: 8.30± 1.27
  REM bout duration: 0.87± 0.13
  W bout duration: 9.83± 5.62
ZT20, 100 mg/kg ip
  NR bout duration: 1.86± 0.28^+
  Number of NR bouts: 16.50± 2.03
  Number of REM bouts: 5.00± 1.12^+
  Number of W bouts: 11.60± 1.11
  REM bout duration: 0.88± 0.08
  W bout duration: 2.46± 0.62
ZT20, EMPA 10 mg/kg ip
  NR bout duration: 1.15± 0.15^+
  Number of NR bouts: 14.00±2.52
  Number of REM bouts: 4.10± 1.11
  Number of W bouts: 10.70± 1.85
  REM bout duration: 0.90± 0.18
  W bout duration: 9.37± 5.67
ZT21, 30 mg/kg ip
  NR bout duration: 1.52± 0.21
  Number of NR bouts: 15.90± 2.21
  Number of REM bouts: 5.80± 1.35
  Number of W bouts: 11.70± 1.55
  REM bout duration: 1.01 ± 0.11
  W bout duration: 3.04± 0.83
ZT21, 100 mg/kg ip
  NR bout duration: 1.17± 0.11
  Number of NR bouts: 17.00± 2.91
  Number of REM bouts: 4.10± 1.08
  Number of W bouts: 12.40± 2.01
  REM bout duration: 1.18 ± 0.14^+
  W bout duration: 8.88± 5.82
ZT21, EMPA 10 mg/kg ip
  NR bout duration: 1.12± 0.17
  Number of NR bouts: 13.50± 2.15
  Number of REM bouts: 3.40± 0.73
  Number of W bouts: 10.20± 1.61
  REM bout duration: 0.69 ± 0.11
  W bout duration: 6.55± 2.67
ZT22, 30 mg/kg ip
  NR bout duration: 1.38± 0.15
  Number of NR bouts: 12.20± 1.65
  Number of REM bouts: 5.30± 1.09
  Number of W bouts: 9.20± 1.32
  REM bout duration: 0.83± 0.13
  W bout duration: 4.90± 1.31
ZT22, 100 mg/kg ip
  NR bout duration: 1.32± 0.31
  Number of NR bouts: 18.40± 2.70
  Number of REM bouts: 4.80± 0.98
  Number of W bouts: 13.20± 1.76
  REM bout duration: 0.84± 0.17
  W bout duration: 2.84± 0.49
ZT22, EMPA 10 mg/kg ip
  NR bout duration: 1.33± 0.24
  Number of NR bouts: 12.70± 1.87
  Number of REM bouts: 3.30± 0.58
  Number of W bouts: 8.20± 1.73
  REM bout duration: 0.84± 0.16
  W bout duration: 7.34± 2.67
ZT23, 30 mg/kg ip
  NR bout duration: 0.90± 0.11^+
  Number of NR bouts: 10.80± 2.35
  Number of REM bouts: 3.40± 1.24
  Number of W bouts: 8.00± 1.56
  REM bout duration: 0.75± 0.21
  W bout duration: 11.46± 5.56
ZT23, 100 mg/kg ip
  NR bout duration: 1.10± 0.20
  Number of NR bouts: 12.30± 1.25
  Number of REM bouts: 3.20± 0.63
  Number of W bouts: 8.60± 1.01
  REM bout duration: 0.96± 0.19
  W bout duration: 4.89 ±0.81
ZT23, EMPA 10 mg/kg ip
  NR bout duration: 1.39± 0.18
  Number of NR bouts: 11.00± 1.40
  Number of REM bouts: 3.40± 0.65
  Number of W bouts: 7.90± 1.27
  REM bout duration: 0.85± 0.09
  W bout duration: 6.10± 1.02
ZT24, 30 mg/kg ip
  NR bout duration: 1.45± 0.49
  Number of NR bouts: 7.50± 1.61
  Number of REM bouts: 2.00± 0.94
  Number of W bouts: 7.10± 1.63
  REM bout duration: 0.69± 0.13
  W bout duration: 16.83± 7.31
ZT24, 100 mg/kg ip
  NR bout duration: 1.04± 0.17
  Number of NR bouts: 9.40± 2.24
  Number of REM bouts: 2.00± 1.01
  Number of W bouts: 8.40± 1.92
  REM bout duration: 0.49± 0.09
  W bout duration: 14.62± 6.09
ZT24, EMPA 10 mg/kg ip
  NR bout duration: 1.25± 0.18^+
  Number of NR bouts: 10.00± 2.22
  Number of REM bouts: 2.30± 0.98
  Number of W bouts: 7.80± 1.76
  REM bout duration: 0.54± 0.10
  W bout duration: 9.17± 2.45
Administered in the mid-dark phase
  NR or REM latency (in words): no effect on either NR or REM latency
All three concentrations (10, 30, 100 mg/kg ip)
  number of W bouts (in words): increased the number of W bouts
High concentration tested, across 6 h
  Tcore (in words): decreased Tcore
Light period
  NR during the subsequent light period (in words): No significant effects on NR
